These results are taken from patent publication US7479493B2, “Substituted benzyl amine compounds” (Janssen Pharmaceutica N.V., priority 2006, dated 2009).

SMILES strings stand for the structures.

In one test the target is cloned human H3 receptor (Homo sapiens, UniProt Q9Y5N1). Nature of the test: H3 Receptor Binding. To be noted: cloned human H3 receptor stably expressed in SK-N-MC cells.
Another test deals with Rat SERT (Rattus norvegicus, UniProt P31652). The test can be described thus: biochemical.
Rat SERT, sequence (P31652 whole entry): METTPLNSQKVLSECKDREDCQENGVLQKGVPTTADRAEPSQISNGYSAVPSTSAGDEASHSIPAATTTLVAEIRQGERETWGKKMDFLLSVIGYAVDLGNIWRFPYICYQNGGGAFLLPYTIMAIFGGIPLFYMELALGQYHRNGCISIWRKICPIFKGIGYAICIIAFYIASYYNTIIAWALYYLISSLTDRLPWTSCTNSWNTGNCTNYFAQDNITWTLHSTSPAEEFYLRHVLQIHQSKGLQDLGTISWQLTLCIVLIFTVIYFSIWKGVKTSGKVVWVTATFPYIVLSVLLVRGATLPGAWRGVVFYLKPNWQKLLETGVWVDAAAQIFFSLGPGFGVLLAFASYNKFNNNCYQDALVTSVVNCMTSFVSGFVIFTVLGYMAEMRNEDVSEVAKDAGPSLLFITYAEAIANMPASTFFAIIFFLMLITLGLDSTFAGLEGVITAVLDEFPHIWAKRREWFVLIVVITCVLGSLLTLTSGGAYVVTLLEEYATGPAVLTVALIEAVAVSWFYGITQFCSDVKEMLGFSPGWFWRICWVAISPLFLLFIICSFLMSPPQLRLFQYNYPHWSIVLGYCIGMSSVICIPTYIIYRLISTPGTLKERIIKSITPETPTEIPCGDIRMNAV

In general, Ki refers to the equilibrium dissociation constant of an inhibitor or competing ligand from its target. Low readings indicate tighter binding, high ones weaker binding.

cloned human H3 receptor, sequence (Q9Y5N1 whole entry): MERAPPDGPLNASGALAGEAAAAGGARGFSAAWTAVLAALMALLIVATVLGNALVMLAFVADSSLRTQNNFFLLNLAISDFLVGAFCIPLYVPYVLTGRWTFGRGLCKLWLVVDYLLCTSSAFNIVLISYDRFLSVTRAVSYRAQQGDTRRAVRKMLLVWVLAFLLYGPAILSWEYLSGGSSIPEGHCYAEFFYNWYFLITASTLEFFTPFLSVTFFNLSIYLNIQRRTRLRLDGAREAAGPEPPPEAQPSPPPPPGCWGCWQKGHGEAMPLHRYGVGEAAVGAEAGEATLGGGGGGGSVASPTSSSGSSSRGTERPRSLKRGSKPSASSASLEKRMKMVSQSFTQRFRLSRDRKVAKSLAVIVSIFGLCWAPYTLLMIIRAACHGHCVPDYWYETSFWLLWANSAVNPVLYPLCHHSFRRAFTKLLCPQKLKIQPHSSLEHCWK
Procedure for Rat SERT: The supernatant was removed and re-centrifuged at 15,000 rpm for 30 min. […] Membranes were incubated with 0.6 nM [^3H]-Citalopram plus/minus test compounds for 60 min at 25° C. and harvested by rapid filtration over GF/C glass fiber filters (pretreated with 0.3% polyethylenimine) followed by four washes with ice-cold buffer. Nonspecific binding was defined in the presence of 100 μM fluoxetine.

Consider `CNCc1cc(N2CCC(N3CCOCC3)CC2)ccc1Oc1ccc(SC)cc1` [Example 51, Methyl-[2-(4-methylsulfanyl-phenoxy)-5-(4-morpholin-4-yl-piperidin-1-yl)-benzyl]-amine], for which the Ki on cloned human H3 receptor stood at 28 nM; at Rat SERT it was 2 nM.
In the same order, the values of `CNCc1cc(C(=O)N2CCN(C3CC3)CC2)ccc1OCc1ccc(Cl)c(Cl)c1` [Example 59, (4-Cyclopropyl-piperazin-1-yl)-[4-(3,4-dichloro-benzyloxy)-3-methylaminomethyl-phenyl]-methanone] are 70 nM and 4 nM.
Taken in the same sequence, the figures for `CN(C)Cc1ccc(C(=O)N2CCN(C3CC3)CC2)cc1OCc1ccccc1` [Example 81, (3-Benzyloxy-4-dimethylaminomethyl-phenyl)-(4-cyclopropyl-piperazin-1-yl)-methanone] were 67 nM and 8000 nM.
For the compound `CNCc1cc(C(=O)N2CCN(C3CC3)CC2)ccc1Oc1ccc(C)nc1` [Example 20, (4-Cyclopropyl-piperazin-1-yl)-[3-methylaminomethyl-4-(6-methyl-pyridin-3-yloxy)-phenyl]-methanone], the Ki on cloned human H3 receptor stood at 59 nM; on Rat SERT, 190 nM.
Taken in the same sequence, the figures for `CNCc1cc(N2CCN(C(C)C)CC2=O)ccc1Oc1ccc(Cl)c(Cl)c1` [Example 50, 1-[4-(3,4-Dichloro-phenoxy)-3-methylaminomethyl-phenyl]-4-isopropyl-piperazin-2-one] were 150 nM and 7 nM.
In the same order, the values of `CNCc1cc(CN2CCN(C3CCC3)CCC2=O)ccc1Oc1ccc(Cl)c(Cl)c1` [Example 70, 1-Cyclobutyl-4-[4-(3,4-dichloro-phenoxy)-3-methylaminomethyl-benzyl]-[1,4]diazepan-5-one] are 19 nM and 5 nM.
In the same order, the values of `CCNCc1cc(CN2CCN(C(C)C)CC2)ccc1Oc1ccc(SC)cc1` [Example 63, Ethyl-[5-(4-isopropyl-piperazin-1-ylmethyl)-2-(4-methylsulfanyl-phenoxy)-benzyl]-amine] are 0.9 nM and 6 nM.
In the case of `CNCc1cc(C(=O)NCCN2CCCC2)ccc1Oc1cccc(Cl)c1` [Example 71, 4-(3-Chloro-phenoxy)-3-methylaminomethyl-N-(2-pyrrolidin-1-yl-ethyl)-benzamide], the Ki at cloned human H3 receptor amounted to 6 nM; at Rat SERT, 2 nM.
Taken in the same sequence, the figures for `CNCc1cc(N2CCN(C3CC3)CC2)ccc1Oc1ccc(SC)cc1` [Example 45, [5-(4-Cyclopropyl-piperazin-1-yl)-2-(4-methylsulfanyl-phenoxy)-benzyl]-methyl-amine] were 76 nM and 1 nM.
Take `CNCc1cc(C(=O)NCCCN(C)C)ccc1Oc1cccc(Cl)c1` [Example 27, 4-(3-Chloro-phenoxy)-N-(3-dimethylamino-propyl)-3-methylaminomethyl-benzamide]: the Ki on cloned human H3 receptor worked out at 48 nM; at Rat SERT it was 0.8 nM.
In the same order, the values of `CNCc1cc(N2CCN(C3CC3)CC2)ccc1Oc1ccc(Cl)c(Cl)c1` [Example 46, [5-(4-Cyclopropyl-piperazin-1-yl)-2-(3,4-dichloro-phenoxy)-benzyl]-methyl-amine] are 49 nM and 4 nM.
Taken in the same sequence, the figures for `CNCc1cc(N2CCCN(C3CC3)CC2)ccc1Oc1ccc(SC)cc1` [Example 53, [5-(4-Cyclopropyl-[1,4]diazepan-1-yl)-2-(4-methylsulfanyl-phenoxy)-benzyl]-methyl-amine] were 28 nM and 6 nM.
In the same order, the values of `CNCc1cc(C(=O)NCCN(C)C)ccc1Oc1cccc(Cl)c1` [Example 26, 4-(3-Chloro-phenoxy)-N-(2-dimethylamino-ethyl)-3-methylaminomethyl-benzamide] are 100 nM and 3 nM.
Turning to `CNCc1cc(C(=O)N2CCN(C3CCC3)CC2)ccc1Oc1cccc(Cl)c1` [Example 72, [4-(3-Chloro-phenoxy)-3-methylaminomethyl-phenyl]-(4-cyclobutyl-piperazin-1-yl)-methanone], the Ki worked out at 4 nM on cloned human H3 receptor and 65 nM at Rat SERT.
Take `CNCc1cc(N2CCN(CCF)CC2)ccc1Oc1ccc(SC)cc1` [Example 44, [5-[4-(2-Fluoro-ethyl)-piperazin-1-yl]-2-(4-methylsulfanyl-phenoxy)-benzyl]-methyl-amine]: the results for the Ki on cloned human H3 receptor and on Rat SERT were 160 nM and 0.5 nM, respectively.
In the same order, the values of `CNCc1cc(N2CCCN(C(C)C)CC2)ccc1Oc1ccc(SC)cc1` [Example 52, [5-(4-Isopropyl-[1,4]diazepan-1-yl)-2-(4-methylsulfanyl-phenoxy)-benzyl]-methyl-amine] are 8 nM and 1 nM.
In the same order, the values of `CSc1ccc(Oc2ccc(CN3CCN(C(C)C)CC3)cc2CNC(C)C)cc1` [Example 64, Isopropyl-[5-(4-isopropyl-piperazin-1-ylmethyl)-2-(4-methylsulfanyl-phenoxy)-benzyl]-amine] are 0.5 nM and 7 nM.
Taken in the same sequence, the figures for `CNCc1cc(CN2CCN(C(C)C)CCC2=O)ccc1Oc1ccc(Cl)c(Cl)c1` [Example 69, 4-[4-(3,4-Dichloro-phenoxy)-3-methylaminomethyl-benzyl]-1-isopropyl-[1,4]diazepan-5-one] were 110 nM and 4 nM.
On to `CNCc1cc(N2CCN(c3ccncc3)CC2)ccc1Oc1ccc(SC)cc1` [Example 43, Methyl-[2-(4-methylsulfanyl-phenoxy)-5-(4-pyridin-4-yl-piperazin-1-yl)-benzyl]-amine], for which the Ki came out at 110 nM at cloned human H3 receptor and 0.7 nM on Rat SERT.
`CN(C)C1CCN(C(=O)c2ccc(CNC3CC3)c(Oc3cccnc3)c2)C1` (centres unmarked) [Example 32, [4-Cyclopropylaminomethyl-3-(pyridin-3-yloxy)-phenyl]-(3-dimethylamino-pyrrolidin-1-yl)-methanone]: the values for the Ki at cloned human H3 receptor and at Rat SERT were 26 nM and 6000 nM, respectively.
`CNCc1ccc(C(=O)N2CCN(C(C)C)CC2)cc1Oc1cccc(Cl)c1` [Example 38, [3-(3-Chloro-phenoxy)-4-methylaminomethyl-phenyl]-(4-isopropyl-piperazin-1-yl)-methanone]: the Ki at cloned human H3 receptor was determined as 4 nM; at Rat SERT, 130 nM.
In the same order, the values of `CNCc1cc(N2CCN(C3CCC3)CC2)ccc1Oc1ccc(SC)cc1` [Example 42, [5-(4-Cyclobutyl-piperazin-1-yl)-2-(4-methylsulfanyl-phenoxy)-benzyl]-methyl-amine] are 6 nM and 0.3 nM.
On to `CNCc1cc(C(=O)N2CCN(C3CC3)CC2)ccc1Oc1cccc(Cl)c1F` [Example 24, [4-(3-Chloro-2-fluoro-phenoxy)-3-methylaminomethyl-phenyl]-(4-cyclopropyl-piperazin-1-yl)-methanone], for which the inhibition constant (Ki) at cloned human H3 receptor was found to be 31 nM; on Rat SERT, 130 nM.
In the same order, the values of `CNCc1cc(C(=O)N2CCN(C3CC3)CC2)ccc1Oc1ccc(Cl)cc1F` [Example 22, [4-(4-Chloro-2-fluoro-phenoxy)-3-methylaminomethyl-phenyl]-(4-cyclopropyl-piperazin-1-yl)-methanone] are 18 nM and 21 nM.
In the same order, the values of `CNCc1ccc(C(=O)N2CCN(C(C)C)CC2)cc1Oc1ccc(Cl)c(Cl)c1` [Example 37, [3-(3,4-Dichloro-phenoxy)-4-methylaminomethyl-phenyl]-(4-isopropyl-piperazin-1-yl)-methanone] are 1 nM and 2 nM.
